Assay results reported in patent US8067424B2, “Selective inhibitors for cyclin-dependent kinases” (Emory University, priority 2007, dated 2011).
Read-outs that look alike come from different tables or passages of the source.

Tests used:
Format in all cases: biochemical
[1] = target: ERK1 (Homo sapiens, UniProt P27361); experiment: Kinase screen: ERK1 assay
Experimental: (§1) Generally, the same procedure was used for all assays. Since the total assay volume was 25.5 microliters, 0.5 microliters of inhibitors at 51× assay concentration were added to the plates before any other addition.
(§2) The basic procedure was to add 0.5 microliters inhibitor/control in DMSO to plate. Fifteen microliters of enzyme/substrate/buffer mix were added and incubated for 5 min. Ten microliters MgATP at the relevant concentration were added and incubated for 30 min. The assay was stopped by adding 5 microliters of 3% orthophosphoric acid. The assay was transferred to a p81 filter plate and read in a scintillation counter of 30 sec/well. Note that this assay procedure was not followed for MKK1, which instead involved a two-step assay, and PKC alpha, which required the addition of lipid vesicles.
ERK1 assay: 5-20 mU of ERK1 (diluted in 50 mM Tris (pH 7.5), 0.1 mM EGTA, 1 mg/ml BSA, 0.1%, b-Mercaptoethanol) was assayed against MBP in a final volume of 25.5 μl containing 50 mM Tris (pH 7.5), 0.1 mM EGTA, 0.1%, b-Mercaptoethanol, 0.33 mg/ml MBP, 10 mM magnesium acetate and 0.005 mM [33P-g-ATP] (500-1000 cpm/pmole) and incubated for 30 mins at room temperature. Assays were stopped by addition of 5 μl of 0.5M (3%) orthophosphoric acid. Assays were harvested onto P81 Unifilter plates using a wash buffer of 50 mM orthophosphoric acid.

[2] = target: JNK1 (Homo sapiens, UniProt P45983); experiment: Kinase screen: JNK1a1/SAPK1c assay
Experimental: as §1, §2
JNK1a1/SAPK1c assay: JNK1a1/SAPK1c (5-20 mU diluted in 50 mM Tris pH 7.5, 0.1 mM EGTA, 1 mg/ml BSA, 0.1% b-mercaptoethanol) was assayed against ATF2 (activating transcription factor in a final volume of 25.5 μl in 50 mM Tris pH 7.5, 0.1 mM EGTA, 0.1% b-Mercaptoethanol, ATF2 (3 μM), 10 mM magnesium acetate and 0.02 mM [33P-g-ATP] (500-1000 cpm/pmole) and incubated for 30 min at room temperature. Assays were stopped by addition of 5 μl of 0.5 M (3%) orthophosphoric acid and then harvested onto P81 Unifilter plates with a wash buffer of 50 mM orthophosphoric acid.

[3] = target: RSK1 (Homo sapiens, UniProt Q15418); experiment: Kinase screen: MAPKAP-K1a assay
Experimental: as §1, §2
MAPKAP-K1a assay: MAPKAP-K1a (5-20 mU diluted in 20 mM MOPS pH 7.5, 1 mM EDTA, 0.01% Brij35, 5% glycerol, 0.1% b-mercaptoethanol, 1 mg/ml BSA) was assayed against […] (SEQ ID NO: 3) in a final volume of 25.5 μl containing 50 mM Na-b-glycerophosphate pH 7.5, 0.5 mM EDTA, 30 μM substrate peptide, 10 mM magnesium acetate and 0.05 mM [33P-g-ATP] (50-1000 cpm/pmole) and incubated for 40 min at room temperature. Assays were stopped by addition of 5 μl of 0.5 M (3%) orthophosphoric acid and then harvested onto P81 Unifilter plates with a wash buffer of 50 mM orthophosphoric acid.

[4] = test system: VEG-FR; experiment: Kinase screen: VEG-FR assay; conditions: 10 micromolar compound
Experimental: as §1, §2
VEG-FR assay: VEG-FR (5-20 mU diluted in 50 mM Tris pH 7.5, 0.1 mM EGTA, 1 mg/ml BSA) was assayed against a substrate peptide ([…]) (SEQ ID NO: 35) in a final volume of 25.5 μl containing 50 mM Tris pH 7.5, 300 μM substrate peptide, 10 mM magnesium acetate and 0.02 mM [33P-g-ATP] (50-1000 cpm/pmole) and incubated for 30 min at room temperature. Assays were stopped by addition of 5 μl of 0.5 M (3%) orthophosphoric acid and then harvested onto P81 Unifilter plates with a wash buffer of 50 mM orthophosphoric acid.

[5] = target: YES1 (Homo sapiens, UniProt P07947); experiment: Kinase screen: YES1 assay; conditions: 10 micromolar compound; for remaining activity at 10 µM: read-out: mean activity remaining (as a percentage of the original activity), YES1
Experimental: as §1, §2
YES1 assay: YES1 (5-20 mU diluted in 50 mM Tris pH 7.5, 0.1 mM EGTA, 1 mg/ml BSA) was assayed against a substrate peptide (Poly Glut Tyr) in a final volume of 25.5 μl containing 50 mM Tris pH 7.5, 1 mg/ml substrate peptide, 10 mM magnesium acetate and 0.02 mM [33P-g-ATP] (50-1000 cpm/pmole) and incubated for 30 min at room temperature. Assays were stopped by addition of 5 μl of 0.5 M (3%) orthophosphoric acid and then harvested onto P81 Unifilter plates with a wash buffer of 50 mM orthophosphoric acid.

[6] = target: CAMKKβ (Homo sapiens, UniProt Q96RR4); experiment: Kinase screen: CAMKKb assay
Experimental: as §1, §2
(500-1000 cpm/pmole) and incubated for 30 mins at room temperature. […] Assays were harvested onto P81 Unifilter plates using a wash buffer of 50 mM orthophosphoric acid.

[7] = 10 micromolar compound, read-out: mean activity remaining (as a percentage of the original activity), ERK1
[8] = 10 micromolar compound, read-out: mean activity remaining (as a percentage of the original activity), JNK1
[9] = 10 micromolar compound, read-out: mean activity remaining (as a percentage of the original activity), RSK1
[10] = 0.5 h, read-out: mean activity remaining (as a percentage of the original activity), CAMK Kb

ERK1, sequence (P27361 whole entry, species assumed): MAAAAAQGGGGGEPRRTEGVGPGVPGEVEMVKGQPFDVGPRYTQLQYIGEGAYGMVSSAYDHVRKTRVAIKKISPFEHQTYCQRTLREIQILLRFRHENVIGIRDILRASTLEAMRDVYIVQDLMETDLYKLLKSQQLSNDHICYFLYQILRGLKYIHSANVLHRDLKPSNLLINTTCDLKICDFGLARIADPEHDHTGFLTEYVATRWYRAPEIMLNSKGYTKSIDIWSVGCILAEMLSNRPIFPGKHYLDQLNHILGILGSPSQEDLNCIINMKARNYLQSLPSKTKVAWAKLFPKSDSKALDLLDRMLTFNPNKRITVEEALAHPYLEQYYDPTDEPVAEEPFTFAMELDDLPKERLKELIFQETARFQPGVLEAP
RSK1, sequence (Q15418 whole entry, species assumed): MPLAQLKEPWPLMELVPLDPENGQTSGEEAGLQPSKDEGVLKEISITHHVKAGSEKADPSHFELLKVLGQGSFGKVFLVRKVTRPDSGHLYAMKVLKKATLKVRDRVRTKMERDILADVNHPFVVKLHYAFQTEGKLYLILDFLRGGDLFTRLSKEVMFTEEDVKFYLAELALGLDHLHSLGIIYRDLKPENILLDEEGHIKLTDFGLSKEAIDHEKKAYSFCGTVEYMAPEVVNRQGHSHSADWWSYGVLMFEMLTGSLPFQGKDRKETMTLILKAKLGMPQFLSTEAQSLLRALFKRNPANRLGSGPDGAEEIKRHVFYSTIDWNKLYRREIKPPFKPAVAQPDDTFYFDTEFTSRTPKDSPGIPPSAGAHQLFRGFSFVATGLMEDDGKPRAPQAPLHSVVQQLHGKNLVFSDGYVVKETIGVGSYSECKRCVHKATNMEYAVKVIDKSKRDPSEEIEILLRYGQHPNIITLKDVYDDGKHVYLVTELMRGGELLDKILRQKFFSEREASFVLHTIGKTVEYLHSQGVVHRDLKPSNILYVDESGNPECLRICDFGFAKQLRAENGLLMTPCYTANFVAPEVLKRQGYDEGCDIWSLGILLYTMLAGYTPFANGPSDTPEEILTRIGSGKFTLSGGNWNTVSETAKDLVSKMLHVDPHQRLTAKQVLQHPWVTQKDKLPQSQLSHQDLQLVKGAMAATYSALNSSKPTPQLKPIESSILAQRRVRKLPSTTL
YES1, sequence (P07947 whole entry, species assumed): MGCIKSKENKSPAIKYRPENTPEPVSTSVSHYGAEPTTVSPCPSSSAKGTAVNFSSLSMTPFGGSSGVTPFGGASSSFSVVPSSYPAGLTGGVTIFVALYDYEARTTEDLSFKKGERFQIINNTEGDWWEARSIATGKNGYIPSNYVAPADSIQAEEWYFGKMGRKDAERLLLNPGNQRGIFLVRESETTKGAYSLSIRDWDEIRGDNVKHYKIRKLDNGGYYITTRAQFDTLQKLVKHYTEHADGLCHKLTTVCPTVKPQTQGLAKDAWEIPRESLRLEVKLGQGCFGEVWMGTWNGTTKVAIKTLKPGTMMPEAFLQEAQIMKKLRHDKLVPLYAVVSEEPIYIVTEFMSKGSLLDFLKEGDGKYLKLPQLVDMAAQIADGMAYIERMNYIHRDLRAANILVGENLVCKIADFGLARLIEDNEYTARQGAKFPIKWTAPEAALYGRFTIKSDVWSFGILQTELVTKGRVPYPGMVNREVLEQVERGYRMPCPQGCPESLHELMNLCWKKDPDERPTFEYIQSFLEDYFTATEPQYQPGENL
JNK1, sequence (P45983 1-384 isoform P45983-2, species assumed): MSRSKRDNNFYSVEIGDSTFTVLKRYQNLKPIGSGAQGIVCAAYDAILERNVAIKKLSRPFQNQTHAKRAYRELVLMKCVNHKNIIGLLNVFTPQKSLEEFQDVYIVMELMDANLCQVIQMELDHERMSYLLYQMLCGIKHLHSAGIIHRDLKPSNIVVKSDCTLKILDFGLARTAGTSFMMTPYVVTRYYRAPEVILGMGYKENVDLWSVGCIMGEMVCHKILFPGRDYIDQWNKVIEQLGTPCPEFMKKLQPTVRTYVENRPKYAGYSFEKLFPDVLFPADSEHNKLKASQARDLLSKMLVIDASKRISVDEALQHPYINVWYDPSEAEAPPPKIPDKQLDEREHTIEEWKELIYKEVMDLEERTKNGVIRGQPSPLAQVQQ

Question: For CC[C@H](CO)Nc1cc(NCc2ccccc2)n2ncc(C(C)C)c2n1 [ICEC0067], which remaining activity at 10 µM [1, 7] is on record?
Answer: The remaining activity at 10 µM was 69%.

Question: And the remaining activity at 10 µM [2, 8]?
Answer: The remaining activity at 10 µM was 98%.

Question: And the remaining activity at 10 µM [3, 9]?
Answer: Its remaining activity at 10 µM is 62%.

Question: What about the “mean activity remaining (as a percentage of the original activity), VEG-FR” value [4] of the same compound?
Answer: The value was 99%.

Question: What about the remaining activity at 10 µM [5] of the same compound?
Answer: The remaining activity at 10 µM was 87%.

Question: And the remaining activity at 10 µM [6, 10]?
Answer: The remaining activity at 10 µM was 29%.

Question: For CC(C)c1cnn2c(NCc3ccccc3F)cc(NCCCCCN)nc12 [ICEC-0232], which “mean activity remaining (as a percentage of the original activity), ERK1” value ([1]; 10 micromolar compound) is on record?
Answer: The value was 90%.

Question: And the “mean activity remaining (as a percentage of the original activity), JNK1” value ([2]; 10 micromolar compound)?
Answer: Its value is 87%.

Question: And the “mean activity remaining (as a percentage of the original activity), RSK1” value ([3]; 10 micromolar compound)?
Answer: Its value is 24%.

Question: And the “mean activity remaining (as a percentage of the original activity), VEG-FR” value [4]?
Answer: The value was 105%.

Question: What about the “mean activity remaining (as a percentage of the original activity), YES1” value [5] of the same compound?
Answer: Its value is 106%.

Question: And the “mean activity remaining (as a percentage of the original activity), CAMK Kb” value ([6]; 10 micromolar compound)?
Answer: The value was 18%.

Question: What does the source list for CC(C)c1cnn2c(NCc3ccccc3)cc(NCCCCCCCN)nc12 [BS-181]?
Answer: remaining activity at 10 µM ([1]; ERK1, 10 μM, read-out: Mean Remaining Enzyme Activity (%)): 108%; remaining activity at 10 µM ([2]; JNK1, 10 μM, read-out: Mean Remaining Enzyme Activity (%)): 100%; remaining activity at 10 µM ([3]; RSK1, 10 μM, read-out: Mean Remaining Enzyme Activity (%)): 67%; remaining activity at 10 µM ([6]; CAMKKβ, 10 μM, read-out: Mean Remaining Enzyme Activity (%)): 67%

Question: CC(C)c1cnn2c(NCc3ccccc3)cc(N[C@@H](CO)[C@H](O)CO)nc12 [ICEC0318, (3S)-3-(7-(Benzylamino)-3-isopropylpyrazolo[1,5-a]pyrimidin-5-ylamino)butane-1,2,4-triol] was tested. Which remaining activity at 10 µM [1, 7] did it give?
Answer: Its remaining activity at 10 µM is 42%.

Question: What about the remaining activity at 10 µM [2, 8] of the same compound?
Answer: The remaining activity at 10 µM was 93%.

Question: What about the remaining activity at 10 µM [3, 9] of the same compound?
Answer: Its remaining activity at 10 µM is 75%.

Question: What about the “mean activity remaining (as a percentage of the original activity), VEG-FR” value [4] of the same compound?
Answer: Its value is 92%.

Question: What about the remaining activity at 10 µM [5] of the same compound?
Answer: Its remaining activity at 10 µM is 89%.

Question: And the remaining activity at 10 µM [6, 10]?
Answer: The remaining activity at 10 µM was 23%.

Question: How did the remaining activity at 10 µM [1, 7] turn out when C=C[C@H](CO)Nc1cc(NCc2ccccc2)n2ncc(C(C)C)c2n1 [ICEC0065] was run?
Answer: Its remaining activity at 10 µM is 84%.

Question: And the remaining activity at 10 µM [2, 8]?
Answer: Its remaining activity at 10 µM is 95%.

Question: What about the remaining activity at 10 µM [3, 9] of the same compound?
Answer: The remaining activity at 10 µM was 79%.

Question: What about the “mean activity remaining (as a percentage of the original activity), VEG-FR” value [4] of the same compound?
Answer: Its value is 101%.

Question: And the remaining activity at 10 µM [5]?
Answer: Its remaining activity at 10 µM is 90%.

Question: What about the remaining activity at 10 µM [6, 10] of the same compound?
Answer: Its remaining activity at 10 µM is 31%.
